Source: patent publication US8945595B2, “Insect repellent and attractants” (The Regents of the University of California, priority 2009, dated 2015)

Legend:
[1] = system: CO2 sensitive A neuron of peg sensillum; assay: activation of CO2 sensitive neuron with a volatile odorant; type: cell-based, Culex quinquefasciatus; details: indicated concentrations
Description: (§1) FIG. 2 depicts electrophysiology measurements of the peg sensillum on the mosquito maxillary palp. The palp, indicated in brown in the schematic of the mosquito head, has several peg sensilla. Each peg sensilla (grey club-like structure in the center) contains three olfactory neurons A, B and C as indicated, of which the ‘A’ neuron gives a robust and specific increase in frequency of action potentials in response to a stimulus of CO2. Extracellular single-unit recordings are performed by inserting a glass microelectrode into the peg sensilla, and puffing an odor such as CO2 towards the mosquito maxillary palps. The signal is amplified to obtain the trace of action potentials.
(§2) (a) Action potential traces from the peg sensillum of the maxillary palp show spike amplitudes from three neurons, where the spikes with the largest amplitude belongs to the CO2 sensitive A neuron. (b) 1 sec of the indicated dilution 2,3-butanedione is puffed to Aedes aegypti. (c) 1 sec of indicated odor is puffed to Anopheles gambiae. (d) butanone and (e) 2,3-butanedione are given to Culex quinquefasciatus at the indicated concentrations. PO=paraffin oil. n=5. Baseline activity subtracted. Error bars indicate SEM.

[2] = system: CO2 sensitive A neuron of peg sensillum; assay: as above; type: cell-based, Aedes aegypti; details: 1 sec puff, indicated dilution
Description: as §1, §2

[3] = system: CO2-sensitive ab1C neurons; assay: single-sensillum electrophysiology, inhibition of CO2 response of ab1C neurons; type: cell-based, Drosophila; details: for inhibition of CO2 response of ab1C neurons: 0.3% CO2 with varying concentrations of odourant, applied prior to or after CO2 stimulus; for silencing of CO2 neuron beyond the period of application: 2,3-butanedione at concentrations >=10^-1, 1-hexanol at the concentrations tested; for inhibition of CO2 response across tested CO2 concentrations: CO2 0.1% up to ~3%
From the text: Representative traces (top) and mean responses (bottom) from single-sensillum electrophysiology of ab1 sensilla in mutant flies; spikes represent activity of the ab1C neuron. a, 3-sec stimulus of odourant overlaid with a 1-sec application of 0.3% CO2. b, 3-sec stimulus of 0.3% CO2 overlaid with a 1-sec application of odourant. PO=paraffin oil, d4on=2,3-butanedione, 6ol=1-hexanol. n=6, error bars=s.e.m. Spikes per second were counted during the 1-sec stimulus period, and spontaneous activity subtracted. (For data in a and b, T-test, *P<0.001, **P<0.005, ***P<0.01, ****P<0.05) c, ab1C responses to indicated concentrations of CO2 in the presence of solvent (PO), 1-hexanol (6ol) or 2,3-butanedione (d4on). Odourants were tested at 10^−1 dilution. Firing rates were counted in consecutive 0.1-sec bins. n=3, error bars=s.e.m.
Bars indicate stimulus periods for 0.3% CO2, and overlays with 1-hexanol (6ol) or 2,3-butanedione (d4on) at the indicated concentrations. b, Recovery of ab1C responsiveness to a 0.5-sec, 0.3% CO2 stimulus applied every 30-sec after initial treatment with 3-sec stimulus of either d4on (10^−1) or paraffin oil (PO). n=5, error bars=s.e.m., (T-test, *P<0.005, **<0.01, ***P<0.05). c, CO2 response inhibition by structurally related compounds. A 3-sec stimulus of 0.3% CO2 was delivered in combination with 1-sec application of indicated odourant (10^−2) as in a. Percent increase or decrease in mean ab1C response was calculated relative to mean response of paraffin oil. n=5. d, Structures of CO2 and the 4 strongest antagonists. e-f, show mean odourant responses. e, Odourants were tested on ab1C neurons in Or83b2 flies at 10^−2 dilution in paraffin oil. Bars represent values after subtraction of mean response to paraffin oil. n=3. f, Odourants at indicated concentrations were tested on ab3A neuron in wild-type (wt) and ΔHalo (AH) mutants that lack Or22a and Or22b. Bars represent values after subtraction of spontaneous activity. n=5, error bars=s.e.m.
FIG. 16 is a schematic diagram of an odour-delivery system to maintain steady concentration of CO2 in binary mixture experiments. Cartridges were made from Pasteur pipettes with pre-filled cotton wool inserts. […] odorant dissolved in paraffin oil (at specific concentrations) was applied to the cotton wool, and a 1.5 ml disposable tip attached to the open end to make the “odour cartridge”. A controlled “humidified air flow” was generated from a compressed air cylinder by bubbling through water, and passed through a glass tube, and released over the recording arena holding the Drosophila. A C-55 stimulus controller (Syntech) was used to generate an additional activated-charcoal filtered continuous air flow of 5 ml/sec which was delivered into the humidified airstream through a “blank cartridge” with the tip placed through a hole in the tube. To generate controlled odourant stimulus the C-55 stimulus controller was used to switch air flow from the “continuous air flow” to “odor stimulus flow” channel. An additional CO2 stimulus was pulsed through a separate system that delivered controlled pulses (variable 2.5 ml/sec-6.5 ml/sec) into the same humidified airstream, from either a 1%, 5% or 100% cylinder of CO2 (Airgas).
Extracellular single-unit recordings were performed. Odourant stimuli were delivered via Pasteur pipette odour cartridges (see, FIG. 16). Chemicals were of the highest purity available, typically>99% (Sigma-Aldrich). All odourants were diluted in paraffin oil. A controlled volume of air 5 ml/sec was puffed through the odour cartridge containing vapours, and was delivered into a constant humidified airstream of 10 ml/sec that was passed over the fly antenna. […] CO2 stimulus was pulsed through a separate delivery system that delivered controlled pulses (variable 2.5 ml/sec-6.5 ml/sec) into the same humidified airstream, from either a 1%, 5% or 100% tank of CO2 (Airgas). […]

Row | Structure (SMILES) | activation of CO2 sensitive neuron [1] | activation of CO2 sensitive neuron [2] | effect of order of presentation on strength of CO2 response inhibition ([3]; 0.3% CO2) | inhibition of CO2 response of ab1C neurons [3] | silencing of CO2 neuron beyond the period of application [3] | CO2 response at 10 minutes versus neurons not pre-exposed ([3]; after 3-second stimulus of odourant 10^-1, 0.3% CO2) | time until responsiveness to CO2 restored to half-maximal levels ([3]; after 3-second stimulus of odourant 10^-1, 0.5-second 0.3% CO2 every 30 seconds) [min] | inhibition of CO2 response across tested CO2 concentrations ([3]; odourant 10^-1) | silencing of CO2-responsive neurons ([3]; odourant at concentrations >10^-2, 0.3% CO2) | CO2 concentration at which complete inhibition occurs ([3]; odourant 10^-1, lowest concentration tested) [% CO2]
1 | CC(=O)C(C)=O [2,3-butanedione] | activation | activation | of lesser consequence | inhibited CO2 response in a dose-dependent manner | silenced the CO2 neuron well beyond the period of application | significantly lower | ~3 | complete inhibition | silences CO2-responsive neurons completely | –
2 | CCCCCCO [1-hexanol] | – | – | greater if it is presented subsequent to the CO2 stimulus | inhibited CO2 response in a dose-dependent manner | not observed | – | – | significant reduction | – | 0.1
